#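 1) Cells in 96-well plates. 2) Compound, 48 h, 5 concentrations. 3) Linear interpolation between surrounding doses. 4) Unreached endpoint = highest concentration. The concentration for 50% growth inhibition is given as GI50.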 The source made the active and inactive calls. No stated cut-off is given here; in the data, active = GI50 up to about 1.1 µM and inactive = higher.
# Assays:
# Assay in all cases: NCI anticancer screen, dose series, 48 h
# UO-31 = test system: UO-31
# HCT-15 = test system: HCT-15
# MDA-N = test system: MDA-N
# KM12 = test system: KM12
# HOP-62 = test system: HOP-62
# SK-OV-3 = test system: SK-OV-3
# SF-295 = test system: SF-295
# HOP-92 = test system: HOP-92
# NCI-H23 = test system: NCI-H23
# NCI-H460 = test system: NCI-H460
# A549 = test system: A549
# CAKI-1 = test system: CAKI-1
# SK-MEL-28 = test system: SK-MEL-28
# ACHN = test system: ACHN
# M14 = test system: M14
# HT-29 = test system: HT-29
# SK-MEL-5 = test system: SK-MEL-5
# SNB-19 = test system: SNB-19
# COLO 205 = test system: COLO 205
# NCI-H226 = test system: NCI-H226
# U-251 = test system: U-251
# RPMI-8226 = test system: RPMI-8226
# MDA-MB-231 = test system: MDA-MB-231
# EKVX = test system: EKVX
# OVCAR-5 = test system: OVCAR-5
# Malme-3M = test system: Malme-3M
# OVCAR-4 = test system: OVCAR-4
# A498 = test system: A498
# SR = test system: SR
# K562 = test system: K562
# SK-MEL-2 = test system: SK-MEL-2
# BT-549 = test system: BT-549
# SW-620 = test system: SW-620
# OVCAR-8 = test system: OVCAR-8
# PC-3 = test system: PC-3
# IGROV-1 = test system: IGROV-1
# RXF 393 = test system: RXF 393
# HCT-116 = test system: HCT-116
# OVCAR-3 = test system: OVCAR-3
# SNB-75 = test system: SNB-75
# NCI/ADR-RES = test system: NCI/ADR-RES
# SF-539 = test system: SF-539
# UACC-62 = test system: UACC-62
# UACC-257 = test system: UACC-257
# TK-10 = test system: TK-10
# SN12C = test system: SN12C
# MDA-MB-435 = test system: MDA-MB-435
# Hs-578T = test system: Hs-578T
# DU-145 = test system: DU-145
# NCI-H522 = test system: NCI-H522
# MCF7 = test system: MCF7
# T47D = test system: T47D
# SF-268 = test system: SF-268
# 786-0 = test system: 786-0
# CCRF-CEM = test system: CCRF-CEM
# HCC 2998 = test system: HCC 2998
# LOX IMVI = test system: LOX IMVI
# MOLT-4 = test system: MOLT-4
structure (smiles),measurement,setting,value
Cc1ncc([N+](=O)[O-])n1CCN=[N+]=[N-],GI50,UO-31,> 100 µM (inactive)
same,GI50,HCT-15,> 100 µM
same,GI50,MDA-N,> 100 µM (inactive)
same,GI50,KM12,> 100 µM (inactive)
same,GI50,HOP-62,> 100 µM (inactive)
same,GI50,SK-OV-3,> 100 µM (inactive)
same,GI50,SF-295,> 100 µM (inactive)
same,GI50,HOP-92,> 100 µM (inactive)
same,GI50,NCI-H23,> 100 µM (inactive)
same,GI50,NCI-H460,> 100 µM (inactive)
same,GI50,A549,> 100 µM (inactive)
same,GI50,CAKI-1,> 100 µM (inactive)
same,GI50,SK-MEL-28,> 100 µM (inactive)
same,GI50,ACHN,> 100 µM (inactive)
same,GI50,M14,> 100 µM (inactive)
same,GI50,HT-29,> 100 µM (inactive)
same,GI50,SK-MEL-5,> 100 µM (inactive)
same,GI50,SNB-19,> 100 µM (inactive)
same,GI50,COLO 205,> 100 µM (inactive)
same,GI50,NCI-H226,> 100 µM (inactive)
same,GI50,U-251,> 100 µM (inactive)
same,GI50,RPMI-8226,> 100 µM (inactive)
same,GI50,MDA-MB-231,> 100 µM (inactive)
same,GI50,EKVX,> 100 µM (inactive)
same,GI50,OVCAR-5,> 100 µM (inactive)
same,GI50,Malme-3M,> 100 µM (inactive)
same,GI50,OVCAR-4,> 100 µM (inactive)
same,GI50,A498,> 100 µM (inactive)
same,GI50,SR,> 100 µM (inactive)
same,GI50,K562,> 100 µM (inactive)
same,GI50,SK-MEL-2,> 100 µM (inactive)
same,GI50,BT-549,> 100 µM (inactive)
same,GI50,SW-620,> 100 µM (inactive)
same,GI50,OVCAR-8,> 100 µM (inactive)
same,GI50,PC-3,> 100 µM (inactive)
same,GI50,IGROV-1,> 100 µM (inactive)
same,GI50,RXF 393,> 100 µM (inactive)
same,GI50,HCT-116,> 100 µM (inactive)
same,GI50,OVCAR-3,> 100 µM (inactive)
same,GI50,SNB-75,> 100 µM (inactive)
same,GI50,NCI/ADR-RES,> 100 µM (inactive)
same,GI50,SF-539,> 100 µM (inactive)
same,GI50,UACC-62,> 100 µM (inactive)
same,GI50,UACC-257,> 100 µM (inactive)
same,GI50,TK-10,> 100 µM (inactive)
same,GI50,SN12C,> 100 µM (inactive)
same,GI50,MDA-MB-435,> 100 µM (inactive)
same,GI50,Hs-578T,> 100 µM (inactive)
same,GI50,DU-145,> 100 µM (inactive)
same,GI50,NCI-H522,> 100 µM (inactive)
same,GI50,MCF7,> 100 µM (inactive)
same,GI50,T47D,> 100 µM (inactive)
same,GI50,SF-268,> 100 µM (inactive)
same,GI50,786-0,> 100 µM (inactive)
Cc1cc(C)n(CN(Cn2nc(C)cc2C)C2CCCCC2)n1,GI50,CCRF-CEM,19 µM (inactive)
same,GI50,UO-31,20.8 µM (inactive)
same,GI50,HCT-15,20.6 µM
same,GI50,MDA-N,19 µM (inactive)
same,GI50,KM12,21.2 µM (inactive)
same,GI50,HOP-62,31.3 µM (inactive)
same,GI50,SK-OV-3,38 µM (inactive)
same,GI50,SF-295,94 µM (inactive)
same,GI50,HOP-92,28.8 µM (inactive)
same,GI50,NCI-H23,24 µM (inactive)
same,GI50,NCI-H460,61.8 µM (inactive)
same,GI50,A549,66.2 µM (inactive)
same,GI50,CAKI-1,31.5 µM (inactive)
same,GI50,SK-MEL-28,20.7 µM (inactive)
same,GI50,ACHN,23.4 µM (inactive)
same,GI50,M14,20.3 µM (inactive)
same,GI50,HT-29,21.1 µM (inactive)
same,GI50,HCC 2998,14.6 µM (inactive)
same,GI50,SK-MEL-5,31.2 µM (inactive)
same,GI50,SNB-19,85.1 µM (inactive)
same,GI50,COLO 205,18.1 µM (inactive)
same,GI50,U-251,32.1 µM (inactive)
same,GI50,RPMI-8226,18.6 µM (inactive)
same,GI50,MDA-MB-231,26.6 µM (inactive)
same,GI50,EKVX,31.8 µM (inactive)
same,GI50,OVCAR-5,22.9 µM (inactive)
same,GI50,Malme-3M,20.5 µM (inactive)
same,GI50,OVCAR-4,24.2 µM (inactive)
same,GI50,A498,> 100 µM (inactive)
same,GI50,SR,30.1 µM (inactive)
same,GI50,SK-MEL-2,17.6 µM (inactive)
same,GI50,BT-549,23.3 µM (inactive)
same,GI50,SW-620,29.7 µM (inactive)
same,GI50,OVCAR-8,25.7 µM (inactive)
same,GI50,LOX IMVI,0.0652 µM (active)
same,GI50,PC-3,22.9 µM (inactive)
same,GI50,IGROV-1,20.1 µM (inactive)
same,GI50,RXF 393,22.4 µM (inactive)
same,GI50,HCT-116,22.4 µM (inactive)
same,GI50,OVCAR-3,25.9 µM (inactive)
same,GI50,SNB-75,17.1 µM (inactive)
same,GI50,NCI/ADR-RES,19.8 µM (inactive)
same,GI50,SF-539,15.7 µM (inactive)
same,GI50,UACC-62,21.5 µM (inactive)
same,GI50,UACC-257,28.1 µM (inactive)
same,GI50,TK-10,44.4 µM (inactive)
same,GI50,SN12C,27.5 µM (inactive)
same,GI50,MDA-MB-435,22.2 µM (inactive)
same,GI50,Hs-578T,> 100 µM (inactive)
same,GI50,DU-145,24.3 µM (inactive)
same,GI50,NCI-H522,20.7 µM (inactive)
same,GI50,MCF7,32.6 µM (inactive)
same,GI50,T47D,28.2 µM (inactive)
same,GI50,SF-268,33 µM (inactive)
same,GI50,786-0,23.1 µM (inactive)
O1C2C1C1OC1C1OC1C1OC21 (stereo not drawn),GI50,UO-31,> 100 µM (inactive)
same,GI50,HCT-15,> 100 µM
same,GI50,MDA-N,> 100 µM (inactive)
same,GI50,KM12,> 100 µM (inactive)
same,GI50,HOP-62,> 100 µM (inactive)
same,GI50,SK-OV-3,> 100 µM (inactive)
same,GI50,SF-295,> 100 µM (inactive)
same,GI50,HOP-92,> 100 µM (inactive)
same,GI50,NCI-H23,> 100 µM (inactive)
same,GI50,A549,> 100 µM (inactive)
same,GI50,CAKI-1,> 100 µM (inactive)
same,GI50,SK-MEL-28,> 100 µM (inactive)
same,GI50,ACHN,> 100 µM (inactive)
same,GI50,M14,> 100 µM (inactive)
same,GI50,HT-29,> 100 µM (inactive)
same,GI50,HCC 2998,> 100 µM (inactive)
same,GI50,SK-MEL-5,> 100 µM (inactive)
same,GI50,SNB-19,> 100 µM (inactive)
same,GI50,COLO 205,> 100 µM (inactive)
same,GI50,NCI-H226,> 100 µM (inactive)
same,GI50,U-251,> 100 µM (inactive)
same,GI50,MDA-MB-231,> 100 µM (inactive)
same,GI50,EKVX,> 100 µM (inactive)
same,GI50,OVCAR-5,> 100 µM (inactive)
same,GI50,Malme-3M,> 100 µM (inactive)
same,GI50,OVCAR-4,> 100 µM (inactive)
same,GI50,A498,> 100 µM (inactive)
same,GI50,SR,> 100 µM (inactive)
same,GI50,K562,> 100 µM (inactive)
same,GI50,MOLT-4,> 100 µM (inactive)
same,GI50,SK-MEL-2,> 100 µM (inactive)
same,GI50,BT-549,> 100 µM (inactive)
same,GI50,OVCAR-8,> 100 µM (inactive)
same,GI50,LOX IMVI,> 100 µM (inactive)
same,GI50,PC-3,> 100 µM (inactive)
same,GI50,HCT-116,> 100 µM (inactive)
same,GI50,SNB-75,11.6 µM (inactive)
same,GI50,NCI/ADR-RES,> 100 µM (inactive)
same,GI50,UACC-62,> 100 µM (inactive)
same,GI50,UACC-257,> 100 µM (inactive)
same,GI50,TK-10,> 100 µM (inactive)
same,GI50,SN12C,> 100 µM (inactive)
same,GI50,MDA-MB-435,> 100 µM (inactive)
same,GI50,Hs-578T,> 100 µM (inactive)
same,GI50,DU-145,> 100 µM (inactive)
same,GI50,NCI-H522,> 100 µM (inactive)
same,GI50,MCF7,> 100 µM (inactive)
same,GI50,T47D,> 100 µM (inactive)
same,GI50,SF-268,> 100 µM (inactive)
